Results: US20230151342A1, “ZINC FINGER DEGRADATION DOMAINS” (THE BROAD INSTITUTE, INC, priority 2020, published 2023)
Where two headings read alike, the source gives them in different places. Where no end group is shown, it is not given here.

Columns and labels:
[1] = test system: Jurkat cells expressing individual zinc fingers in the protein degradation reporter; assay: Validation of individual zinc fingers in eGFP/mCherry protein degradation reporter (single reporter degradation experiments); assay type: cell-based
Procedure: FIG. 18A-18B Validation of individual hybrid zinc finger degrons. (FIG. 18A) Vehicle control-normalized eGFP/mCherry fluorescence ratios measured by flow cytometry for Jurkat cells expressing the indicated minimal 23 amino acid zinc finger degron constructs after treatment with pomalidomide or vehicle control. Experiments were performed in triplicate and error bars indicate standard deviation. […] (FIG. 18B) IC50 values for lenalidomide- or pomalidomide-induced degradation of endogenous and hybrid zinc fingers calculated from single reporter degradation experiments. (FIG. 18C) Jurkat cells expressing the 19BBz-d91.3 CAR were treated overnight with lenalidomide and the E1 inhibitor MLN7243 (500 nM), the Neddylation inhibitor […] (5000 nM), the lysosomal acidification inhibitor Chloroquine (50,000 nM), or the lysosomal acidification inhibitor Bafilomycin A (100 nM). CAR degradation requires ubiquitin ligase and Cullin-RING ligase function, and is insensitive to inhibition of autophagy.
FIG. 23. Validation of individual hybrid zinc finger degrons. Individual 23 amino acid zinc finger domains were cloned into the Cilantro 2 protein degradation reporter lentivector. Jurkat cells were transduced with each of these viruses. The GFP/mCherry ratio was calculated in the presence of various thalidomide analogs, indicative of drug-dependent degradation. Dark Gray=hybrid zinc fingers. Light Gray=endogenous zinc fingers. Dotted line=ZFP91-IKZF3.
Jurkat cells were created expressing each of the 6 hybrid and 8 associated parent ZFs and subjected them to a range of doses of lenalidomide, pomalidomide, avadomide, and iberdomide. […] The IC50 for degradation was lower for the 6 hybrid ZFs than their parent ZFs (FIG. 18B). […] One of these validated hybrids, ZFP91-IKZF3, was chosen with 1.6-6.0-times lower IC50 for degradation than IKZF3 across the tested thalidomide derivatives (FIG. 11G) hereafter termed “d91.3”, as a super degron tag for further CAR engineering, which was incorporated for evaluation of on and off-switch CARs.
Jurkat cells expressing a library of 440 C2H2 zinc fingers in a eGFP/mCherry protein degradation reporter vector were treated with DMSO or thalidomide analog drug for 16 hours. mCherry^+eGFP^low cell populations were isolated by FACS in triplicate, and the relative frequency of individual ZFs was quantified with next-generation sequencing. For validation, Jurkat cells were engineered to express individual zinc fingers in the protein degradation reporter; the eGFP:mCherry ratio was determined by flow cytometry after 16 hour incubation with varying concentrations of thalidomide analogs.

K562-CD19 cells = assay: Jurkat CAR functional assay: CD69 expression after co-culture with K562-CD19 cells; assay type: cell-based; conditions: lenalidomide
Description: FIG. 12A-12D—ON-switch split CARs only function in the presence of lenalidomide. (FIG. 12A) Schematic of split CAR constructs. Each split CAR is composed of the indicated antigen-binding part A and the ITAM-containing part B. The lenalidomide-induced dimerization module is encoded by zinc fingers from IKZF3 or the engineered 913 zinc finger and a fragment of CRBN (CRBNΔ3). The intracellular domains of each split CAR part A is protected from CRL4^CRBN ubiquitination by K>R “K0” substitutions. The control second generation CAR FMC63-CD28-CD3z was also used. sCAR, split CAR. […] (FIG. 12C) Primary T cells were infected with lentiviruses encoding parts A and B of split CAR 913. Untransduced cells and cells expressing components A only, B only, and both A+B were purified by FACS. Cytotoxic activity of each sorted cell population was measured after overnight co-culture with NALM6 target cells and lenalidomide or vehicle control at the indicated effector:target ratios. The maximum plasma concentration for once daily 25 mg lenalidomide in multiple myeloma patients is indicated. (FIG. 12D) Scatterplots showing the production of cytokines after co-culture (1:1 CAR T:NALM6 ratio) in the presence of 1000 nM lenalidomide versus vehicle control. Experiments were performed in triplicate and error bars indicate standard deviation.
FIG. 24 Validation of lenalidomide-OFF-switch control of CAR T cell activation, as assessed by expression of the early activation marker CD69, in Jurkat T cells expressing various super-degron tagged chimeric antigen receptors. Regulation of CAR T cell activation with the indicated super-degrons, in comparison to the previously described degron d913. […]
Thalidomide analogs control degradable CAR T cell activation and effector functions in vitro and in vivo. […] Then cytokine production was analyzed in response to antigen stimulation.

NALM6 target cells [2] = assay: Cytokine production in CAR T:NALM6 co-culture supernatant (Luminex); assay type: cell-based; conditions: split CAR primary T cells, NALM6, 1000 nM lenalidomide
Description: (§1) To evaluate whether effector functions of primary T cells could be gated by lenalidomide, primary sCAR 913 T cells were generated. As the two split CAR components are delivered by separate lentivectors, this gave the ability to use FACS to purify cells expressing neither, one, or both components.
(§2) Thalidomide analogs control degradable CAR T cell activation and effector functions in vitro and in vivo. To test whether degradable CAR T cell activation could be controlled with lenalidomide, 19BBz, 19BBz-dIKZF3, 19BBz-d91.3, and 19BBz-d91.3* Jurkat CAR T cell lines were co-cultured with K562 cells engineered to express the target antigen CD19 (K562-CD19) and 11 lenalidomide concentrations or vehicle control. […] To evaluate whether effector functions of degradable CAR T cells could be controlled with lenalidomide, primary human CAR T cells were generated and cytotoxicity assays performed comparing the conventional 19BBz CAR to the degradable 19BBz-d91.3 CAR in vitro. […] Then cytokine production was analyzed in response to antigen stimulation.
(§3) Primary human CAR-T effector cells were co-cultured with NALM6 target cells engineered to express click beetle green luciferase at the indicated ratios for 16 hours. Luciferase activity was measured with a Synergy Neo2 luminescence microplate reader (Biotek). Cell culture supernatant from these experiments was analyzed for soluble cytokines (Luminex).

NALM6 target cells [3] = assay: Cellular cytotoxicity assay of primary human CAR-T cells; assay type: cell-based; conditions: 1000 nM lenalidomide; primary split CAR T cells sorted for components A, B
Description: as §1, §2, §3

[4] = target: CRBN (substrate receptor of the CRL4^CRBN E3 ubiquitin ligase) (UniProt Q96SW2 1-442); assay: cell-based or functional assay
Sequence of CRBN (substrate receptor of the CRL4^CRBN E3 ubiquitin ligase) (Q96SW2 whole entry): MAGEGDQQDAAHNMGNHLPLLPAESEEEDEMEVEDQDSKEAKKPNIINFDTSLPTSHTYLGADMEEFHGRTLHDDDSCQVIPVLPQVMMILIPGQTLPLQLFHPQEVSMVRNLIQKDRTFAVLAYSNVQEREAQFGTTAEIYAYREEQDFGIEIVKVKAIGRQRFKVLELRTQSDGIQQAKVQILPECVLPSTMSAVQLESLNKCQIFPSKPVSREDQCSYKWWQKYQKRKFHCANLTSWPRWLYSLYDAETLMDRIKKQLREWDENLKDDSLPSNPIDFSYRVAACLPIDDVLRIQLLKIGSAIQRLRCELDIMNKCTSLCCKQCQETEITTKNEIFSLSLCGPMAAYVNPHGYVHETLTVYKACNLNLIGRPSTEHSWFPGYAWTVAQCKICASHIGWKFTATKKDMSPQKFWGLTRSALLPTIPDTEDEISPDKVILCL

[5] = CC-122-induced degradation, eGFP:mCherry ratio, 16 hour incubation, read-out: EC50 cc122
[6] = lenalidomide-induced degradation, eGFP:mCherry ratio, 16 hour incubation, read-out: EC50 len
[7] = pomalidomide-induced degradation, eGFP:mCherry ratio, 16 hour incubation, read-out: EC50 pom
[8] = lenalidomide, repeat experiment, read-out: EC50 len repeat

Molecule	EC50 [1, 5] [nM]	EC50 [1, 6] [nM]	EC50 [1, 7] [nM]	also measured
FACVICGRKFRNRGLMQKHLKNH [HZnF_11, reference compound]	179	59.9	18.8	
FQCNQCGASFTQKGNLLRHIKLH [HZnF_27, reference compound]	33.5	21.9	3.1	EC50 [1, 8]: 28.2 nM
FQCNQCGASFTRHSHLIEHLKRH [HZnF_10]	32.4	55.4	9.05	
FQCNQCGASFTRLSTLIQHQKVH [HZnF_06]	56.1	433	21.9	
FQCPICGLVIKRKSYWKRHMVIH [HZnF_16, reference compound]	50.2	60.5	8.06	
HECKLCGASFRTKGSLIRHHRRH [HZnF_07, reference compound]	58.5	34.8	11.3	
LQCEICGFTCRQKASLNWHMKKH [HZnF_13, reference compound]	33	57.8	5.47	
LQCEICGFTCRQKGNLLRHIKLH (FHCNQCGASFTQKGNLLRHIKLH) [HZnF_26]	13.4	22.9	0.78	EC50 [1, 8]: 29.4 nM
LQCEICGFTCRRHSHLIEHLKRH [HZnF_17]	73.4	149	5.29	
LQCEICGFTCRWSSHYQYHLRQH [HZnF_04]	101	324	14.1	
LQCEICGYQCRQRASLNWHMKKH [HZnF_12, reference compound]	37	75.1		
LQCEVCGFQCRQRASLKYHMTKH [HZnF_01, reference compound]	73.6	78.6	7.41	
YGCNECGKNFGRHSHLIEHLKRH [HZnF_09, reference compound]	68.2		0.224	
YQCKVCGRAFKQKGNLLRHIKLH [HZnF_14]	26	83.1	5.19	
YQCKVCGRAFKRLSTLIQHQKVH [HZnF_15]	35.2	71.9	5.12	
YQCKVCGRAFKRVSHLTVHYRIH [8HZnF__19, label misprinted, reference compound]	125	248	16.9	
YRCRACGRACSRLSTLIQHQKVH [HZnF_03, reference compound]	29.5	55.2	4.47	
YSCPVCGLRFKRKDRMSYHVRSH [HZnF_02, reference compound]	176	100		
sCAR-91.3: lenalidomide ON-switch split CAR with dimerization domain from hybrid d913 zinc finger and CRBNΔ3 (FNVLMVHKRSHTGERPLQCEICGFTCRQKGNLLRHIKLHTGEKPFKCHLCNYACQRRDAL; cysteine pairing not given here; also: fragment of split CAR, other chain or arm left off)				fold lower EC50 than sCAR IKZF3 (K562-CD19 cells; Jurkat T cells exposed to CD19+ target cells): 7 fold; EC50 (K562-CD19 cells; split CAR-Jurkat cells co-cultured with K562-CD19, read-out: EC50 (percentage of CD69+ cells)): 29.3 nM; IL2 production in co-culture (NALM6 target cells [2]): required the complete sCAR 91.3 and lenalidomide; killing of NALM6 target cells (NALM6 target cells [3]): restricted to T cells expressing both halves of sCAR 91.3 in the presence of 1000 nM lenalidomide
YSCPVCGLRFKRKDRMSYHVRSH (not fully specified; cysteine pairing not given here) [PATZ1_383_405-PATZ1_383_405_J1]				EC50 pom: pomalidomide-induced degradation, eGFP/mCherry reporter, Jurkat [4]: 32.4 nM
LQCEICGYQCRQRASLNWHMKKH (not fully specified; cysteine pairing not given here) [ZN653_556_578-ZN653_556_578_J1]				EC50 pom: pomalidomide-induced degradation, eGFP/mCherry reporter, Jurkat [4]: 5.17 nM
LQCEICGYQCRRKDRMSYHVRSH (not fully specified; cysteine pairing not given here) [ZN653_556_578-PATZ1_383_405_J1]				EC50 pom: pomalidomide-induced degradation, eGFP/mCherry reporter, Jurkat [4]: 0.16 nM

More lines, in order of falling EC50 [1, 5], values ahead:

EC50 [1, 5] [nM]	EC50 [1, 6] [nM]	EC50 [1, 7] [nM]	Molecule	also measured
10.1	18.3	3.61	FQCNQCGASFTTKGSLIRHHRRH [HZnF_08]	
7.07	22.5	1.86	LQCEICGYQCRRLSTLIQHQKVH [HZnF_1, label misprinted]	
5.67	10.1	0.46	LQCEVCGFQCRQPKSLARHLRLH [HZnF_24]	EC50 [1, 8]: 15 nM
5.22	4.59	1.05	FQCNQCGASFTQPKSLARHLRLH [HZnF_20]	EC50 [1, 8]: 6.09 nM
2.93	48	8.55	FVCPRCGRGFSQPKSLARHLRLH [HZnF_05, reference compound]	
2.46	11.2	0.311	FQCPICGLVIKRHSHLIEHLKRH [HZnF_21]	EC50 [1, 8]: 8.23 nM
2.42	12.2	0.212	LQCEICGYQCRQPKSLARHLRLH [HZnF_22]	EC50 [1, 8]: 6.59 nM
0.983	6.45	0.146	LQCEICGFTCRQPKSLARHLRLH [HZnF_23]	EC50 [1, 8]: 4.66 nM
0.693	6.64		LQCEICGYQCRRKDRMSYHVRSH [HZnF_25]	EC50 [1, 8]: 3.53 nM; pomalidomide-dependent degradation compared with parent ZF ([1]; pomalidomide): more efficient pomalidomide-dependent degradation than either parent ZF
